Source: US12552752B2, “Atropisomers of pyridazinone derivatives as herbicides” (FMC Corporation, priority 2020, dated 2026)

Columns and labels:
Type in all cases: in vivo
[1] = test system: ryegrass, Italian (RGI, Lolium multiflorum); assay: Test A preemergence, Italian ryegrass; conditions: PRE, 0 to 100 scale, approximately 10 d
Description: (§1) Seeds of plant species selected from barnyardgrass (BYG, Echinochloa crus-galli), kochia (KOC, Kochia scoparia), ragweed (common ragweed, Ambrosia elatior), ryegrass, Italian (RGI, Lolium multiflorum), foxtail, giant (FTI, Setaria faberii), foxtail, green (Setaria viridis) and pigweed (PWR, Amaranthus retroflexus) were planted into a blend of loam soil and sand and treated preemergence with a directed soil spray using test chemicals formulated in a non-phytotoxic solvent mixture which included a surfactant. At the same time, plants selected from these weed species and also wheat (WWT, Triticum aestivum), corn (CPI, Zea mays), blackgrass (BKG, Alopecurus myosuroides) and galium (GAL, catchweed bedstraw, Galium aparine) were planted in pots containing the same blend of loam soil and sand and treated with postemergence applications of test chemicals formulated in the same manner Plants ranged in height from 2 to 10 cm and were in the one- to two-leaf stage for the postemergence treatment. Treated plants and untreated controls were maintained in a greenhouse for approximately 10 d, after which time all treated plants were compared to untreated controls and visually evaluated for injury. Plant response ratings, summarized in Tables 1-4, are based on a 0 to 100 scale where 0 is no effect and 100 is complete control. A dash (−) response means no test result. The ratings are followed by a letter representing the symptomology where S is Albinism, C is Chlorosis, G is Growth Inhibition and E is Emergence.

[2] = test system: pigweed (PWR, Amaranthus retroflexus); assay: Test A postemergence, pigweed; conditions: POST, 0 to 100 scale, approximately 10 d
Description: as §1

[3] = test system: foxtail, giant (FTI, Setaria faberii); assay: Test A postemergence, giant foxtail; conditions: POST, 0 to 100 scale, approximately 10 d
Description: as §1

[4] = test system: ragweed (common ragweed, Ambrosia elatior); assay: Test A postemergence, ragweed; conditions: POST, 0 to 100 scale, approximately 10 d
Description: as §1

[5] = test system: wheat (WWT, Triticum aestivum); assay: Test A postemergence, wheat; conditions: POST, 0 to 100 scale, approximately 10 d
Description: as §1

[6] = test system: barnyardgrass (BYG, Echinochloa crus-galli); assay: Test A preemergence, barnyardgrass; conditions: PRE, 0 to 100 scale, approximately 10 d
Description: as §1

[7] = test system: kochia (KOC, Kochia scoparia); assay: Test A postemergence, kochia; conditions: POST, 0 to 100 scale, approximately 10 d
Description: as §1

[8] = test system: galium (GAL, catchweed bedstraw, Galium aparine); assay: Test A postemergence, galium; conditions: POST, 0 to 100 scale, approximately 10 d
Description: as §1

[9] = test system: pigweed (PWR, Amaranthus retroflexus); assay: Test A preemergence, pigweed; conditions: PRE, 0 to 100 scale, approximately 10 d
Description: as §1

[10] = test system: ryegrass, Italian (RGI, Lolium multiflorum); assay: Test A postemergence, Italian ryegrass; conditions: POST, 0 to 100 scale, approximately 10 d
Description: as §1

[11] = test system: blackgrass (BKG, Alopecurus myosuroides); assay: Test A postemergence, blackgrass; conditions: POST, 0 to 100 scale, approximately 10 d
Description: as §1

[12] = test system: foxtail, giant (FTI, Setaria faberii); assay: Test A preemergence, giant foxtail; conditions: PRE, 0 to 100 scale, approximately 10 d
Description: as §1

[13] = test system: kochia (KOC, Kochia scoparia); assay: Test A preemergence, kochia; conditions: PRE, 0 to 100 scale, approximately 10 d
Description: as §1

[14] = test system: barnyardgrass (BYG, Echinochloa crus-galli); assay: Test A postemergence, barnyardgrass; conditions: POST, 0 to 100 scale, approximately 10 d
Description: as §1

corn (CPI, Zea mays) = assay: Test A postemergence, corn; conditions: POST, 0 to 100 scale, approximately 10 d
Description: as §1

[15] = 31 g ai/ha, listed as drawing 27
[16] = 125 g ai/ha, listed as drawing 27
[17] = 31 g ai/ha, listed as drawing 28
[18] = 125 g ai/ha, listed as drawing 28
[19] = 31 g ai/ha, listed as drawing 30
[20] = 125 g ai/ha, listed as drawing 30
[21] = 31 g ai/ha, listed as drawing 25
[22] = 125 g ai/ha, listed as drawing 25
[23] = 31 g ai/ha, listed as drawing 26
[24] = 125 g ai/ha, listed as drawing 26

Cc1ccc2ccccc2c1-c1c(O)c(Cl)nn(C)c1=O (racemic) [3 (Enantiomer 3A)]
Plant response rating RGI [1, 15]: 10 S
Plant response rating PWR ([2]; 125 g ai/ha): 100 C
Plant response rating FTI [3, 15]: 20 S
Plant response rating RWC [4, 16]: 100 C
Plant response rating WWT ([5]; 31 g ai/ha): 0
Plant response rating BYG [6, 16]: 50 S
Plant response rating KOC ([7]; 125 g ai/ha): 90 S
Plant response rating GAL [8, 16]: 100 C

Cc1ccc2ccccc2c1-c1c(O)c(Cl)nn(C)c1=O (racemic) [3 (Enantiomer 3B)]
Plant response rating PWR [9, 17]: 90 C
Plant response rating PWR ([9]; 1000 g ai/ha): 100 C
Plant response rating RGI ([1]; 1000 g ai/ha): 100 S
Plant response rating RGI [10, 18]: 100 S
Plant response rating RGI ([10]; 1000 g ai/ha): 100 S
Plant response rating PWR [2, 17]: 100 C
Plant response rating PWR ([2]; 1000 g ai/ha): 100 C
Plant response rating BKG [11, 17]: 0
Plant response rating BKG ([11]; 1000 g ai/ha): 80 S
Plant response rating FTI [3, 18]: 90 S
Plant response rating FTI ([3]; 1000 g ai/ha): 100 S
Plant response rating RWC [4, 17]: 100 C
Plant response rating RWC ([4]; 1000 g ai/ha): 90 S
Plant response rating WWT [5, 18]: 30 S
Plant response rating WWT ([5]; 1000 g ai/ha): 90 S
Plant response rating FTI [12, 18]: 100 C
Plant response rating FTI ([12]; 1000 g ai/ha): 100 C
Plant response rating KOC [13, 17]: 10 S
Plant response rating KOC ([13]; 1000 g ai/ha): 100 C
Plant response rating BYG ([14]; 1000 g ai/ha): 90 S
Plant response rating CPI (corn (CPI, Zea mays); 1000 g ai/ha): 50 S
Plant response rating BYG [6, 17]: 80 S
Plant response rating BYG ([6]; 1000 g ai/ha): 100 C
Plant response rating KOC ([7]; 1000 g ai/ha): 100 C
Plant response rating GAL [8, 17]: 100 C 100 C 100 C 100 C 100 C
Plant response rating GAL [8, 18]: 100 C 100 C 100 C 100 C 100 C
Plant response rating GAL ([8]; 1000 g ai/ha): 100 C 100 C 100 C 100 C 100 C

CCC(=O)Oc1c(Cl)nn(C)c(=O)c1-c1c(C)ccc2ccc(C)cc12 (racemic) [4 (Enantiomer 4B)]
Plant response rating PWR [9, 19]: 100 C 100 C 100 C 100 C
Plant response rating PWR [9, 20]: 100 C 100 C 100 C 100 C
Plant response rating RGI [1, 19]: 80 S
Plant response rating RGI [1, 20]: 90 S
Plant response rating RGI [10, 19]: 80 C
Plant response rating RGI [10, 20]: 90 C
Plant response rating PWR [2, 19]: 100 C 100 C 100 C 100 C
Plant response rating PWR [2, 20]: 100 C 100 C 100 C 100 C
Plant response rating BKG [11, 19]: 20 S
Plant response rating BKG [11, 20]: 70 S
Plant response rating FTI [3, 19]: 80 S
Plant response rating FTI [3, 20]: 90 S
Plant response rating RWC [4, 19]: 90 S
Plant response rating RWC [4, 20]: 100 C
Plant response rating WWT [5, 19]: 0
Plant response rating WWT [5, 20]: 20 S
Plant response rating FTI [12, 19]: 100 C
Plant response rating FTI [12, 20]: 100 C
Plant response rating KOC [13, 20]: 70 S
Plant response rating BYG [14, 19]: 70 S
Plant response rating BYG [14, 20]: 90 S
Plant response rating CPI (corn (CPI, Zea mays); [19]): 10 G
Plant response rating CPI (corn (CPI, Zea mays); [20]): 10 S
Plant response rating BYG [6, 19]: 100 C
Plant response rating BYG [6, 20]: 100 C
Plant response rating KOC [7, 20]: 50 S
Plant response rating GAL [8, 19]: 100 C 100 C
Plant response rating GAL [8, 20]: 100 C 100 C

Cc1ccc2ccc(C)c(-c3c(O)c(Cl)nn(C)c3=O)c2c1 (single isomer, unassigned) [2 (Enantiomer 2A)]
Plant response rating PWR ([9]; 31 g ai/ha): 100 C 100 C 100 C 100 C
Plant response rating PWR ([9]; 125 g ai/ha): 100 C 100 C 100 C 100 C
Plant response rating RGI [1, 21]: 20 G
Plant response rating RGI [1, 22]: 20 G
Plant response rating RGI [10, 21]: 30 S
Plant response rating RGI [10, 22]: 40 S
Plant response rating PWR ([2]; 31 g ai/ha): 100 C 100 C 100 C 100 C
Plant response rating PWR ([2]; 125 g ai/ha): 100 C 100 C 100 C 100 C
Plant response rating BKG [11, 21]: 0
Plant response rating BKG [11, 22]: 20 S
Plant response rating FTI [3, 21]: 30 S
Plant response rating FTI [3, 22]: 60 S
Plant response rating RWC [4, 21]: 90 S 90 S
Plant response rating RWC [4, 22]: 90 S 90 S
Plant response rating WWT [5, 21]: 0
Plant response rating WWT [5, 22]: 0
Plant response rating FTI [12, 21]: 20 S
Plant response rating FTI [12, 22]: 40 S
Plant response rating KOC [13, 21]: 10 C
Plant response rating KOC [13, 22]: 80 S
Plant response rating BYG [14, 21]: 20 C
Plant response rating BYG [14, 22]: 30 C
Plant response rating CPI (corn (CPI, Zea mays); [21]): 10 G
Plant response rating CPI (corn (CPI, Zea mays); 125 g ai/ha): 30 G
Plant response rating BYG [6, 21]: 0
Plant response rating BYG [6, 22]: 50 G
Plant response rating KOC ([7]; 31 g ai/ha): 60 S
Plant response rating KOC [7, 22]: 80 S
Plant response rating GAL [8, 21]: 100 C 100 C
Plant response rating GAL [8, 22]: 100 C 100 C

Cc1ccc2ccc(C)c(-c3c(O)c(Cl)nn(C)c3=O)c2c1 (single isomer, unassigned) [2 (Enantiomer 2B)]
Plant response rating RGI [1, 23]: 80 S
Plant response rating RGI [1, 24]: 100 S
Plant response rating RGI [10, 23]: 100 C
Plant response rating RGI [10, 24]: 100 C
Plant response rating PWR ([2]; 125 g ai/ha): 100 C 100 C 100 C 100 C
Plant response rating BKG [11, 23]: 30 C
Plant response rating BKG [11, 24]: 40 S
Plant response rating FTI [3, 23]: 80 S
Plant response rating FTI [3, 24]: 90 S
Plant response rating RWC [4, 23]: 100 C 100 C
Plant response rating RWC [4, 24]: 100 C 100 C
Plant response rating WWT [5, 23]: 0
Plant response rating WWT [5, 24]: 30 S
Plant response rating FTI [12, 23]: 100 C
Plant response rating FTI [12, 24]: 100 C
Plant response rating KOC [13, 23]: 0
Plant response rating KOC [13, 24]: 90 C
Plant response rating BYG [14, 23]: 80 C
Plant response rating BYG [14, 24]: 90 C
Plant response rating CPI (corn (CPI, Zea mays); [23]): 0
Plant response rating CPI (corn (CPI, Zea mays); 125 g ai/ha): 30 G
Plant response rating BYG [6, 23]: 90 S
Plant response rating BYG [6, 24]: 100 C
Plant response rating KOC ([7]; 31 g ai/ha): 60 S
Plant response rating KOC [7, 24]: 70 S
Plant response rating GAL [8, 23]: 100 C
Plant response rating GAL [8, 24]: 90 C
